Data as given in patent US7183260B2, “C-terminal modified oxamyl dipeptides as inhibitors of the ICE/ced-3 family of cysteine proteases” (Idun Pharmaceuticals, Inc., priority 1998, dated 2007).
Read-outs that look alike come from different tables or passages of the source. Where a SMILES comes first, the peptide text is derived from it. The star is where a group is joined. Cbz = O=C(OCc1ccccc1)*

How the values were obtained:
Format in all cases: biochemical
[1] = target: T1, MCH-2 (Homo sapiens, UniProt P55212); experiment: Fluorescence enzyme assay, determination of IC50 values (Mch2); settings: 30 min preincubation, substrate Acetyl-Asp-Glu-Val-Asp-AMC, room temperature
T1 sequence (P55212 24-179 limits assumed): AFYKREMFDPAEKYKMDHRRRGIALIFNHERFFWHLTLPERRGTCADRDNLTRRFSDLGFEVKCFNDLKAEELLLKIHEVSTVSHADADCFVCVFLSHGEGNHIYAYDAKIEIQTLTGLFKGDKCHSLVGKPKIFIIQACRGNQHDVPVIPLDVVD
T1 sequence (P55212 194-293 limits assumed): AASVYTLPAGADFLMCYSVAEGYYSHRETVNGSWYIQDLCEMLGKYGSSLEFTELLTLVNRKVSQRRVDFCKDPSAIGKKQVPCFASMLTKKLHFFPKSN
Description: (§1) Fluorescence enzyme assays detecting the activity of the compounds of Formula I utilizing the recombinant ICE and CPP32 enzymes are performed essentially according to Thornberry et al. (Nature, 356:768:774 (1992)) and Nicholson et al. (Nature, 376:37–43 (1995)) respectively, (herein incorporated by reference) in 96 well microtiter plates. The substrate is Acetyl-Tyr-Val-Ala-Asp-amino-4-methylcoumarin (AMC) for the ICE assay and Acetyl-Asp-Glu-Val-Asp-amino-4-methylcoumarin for the CPP32, Mch2, Mch3 and Mch5 assays. Enzyme reactions are run in ICE buffer (25 mM HEPES, 1 mM EDTA, 0.1% CHAPS, 10% sucrose, pH 7.5) containing 2 mM DTT at room temperature in duplicate.
(§2) The enzyme and the compound of Formula I to be assayed are allowed to preincubate in the microtitre plate wells for 30 minutes at room temperature prior to the addition of substrate to initiate the reaction. Fluorescent AMC product formation is monitored for one hour at room temperature by measuring the fluorescence emission at 460 nm using an excitation wavelength of 360 nm.
(§3) The reference compound for this assay was Cbz-ValAlaAsp-H and the values are denoted in Table 1 as “Reference”.

[2] = target: T2, MCH-5 (Homo sapiens, UniProt Q14790); experiment: Fluorescence enzyme assay, determination of IC50 values (Mch5); settings: 30 min preincubation, substrate Acetyl-Asp-Glu-Val-Asp-AMC, room temperature
T2 sequence (Q14790 217-374 limits assumed, species assumed): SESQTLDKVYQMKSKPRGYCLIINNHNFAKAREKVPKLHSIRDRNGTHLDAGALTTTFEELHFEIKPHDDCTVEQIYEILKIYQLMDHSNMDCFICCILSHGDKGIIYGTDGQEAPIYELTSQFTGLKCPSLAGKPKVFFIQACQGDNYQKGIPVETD
T2 sequence (Q14790 385-479 limits assumed, species assumed): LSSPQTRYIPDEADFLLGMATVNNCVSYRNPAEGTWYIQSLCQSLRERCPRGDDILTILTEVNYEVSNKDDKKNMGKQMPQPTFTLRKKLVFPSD
Description: The substrate is Acetyl-Tyr-Val-Ala-Asp-amino-4-methylcoumarin (AMC) for the ICE assay and Acetyl-Asp-Glu-Val-Asp-amino-4-methylcoumarin for the CPP32, Mch2, Mch3 and Mch5 assays. Enzyme reactions are run in ICE buffer (25 mM HEPES, 1 mM EDTA, 0.1% CHAPS, 10% sucrose, pH 7.5) containing 2 mM DTT at room temperature in duplicate.
as §2, §3

[3] = target: T3, CPP32 (Homo sapiens, UniProt P42574); experiment: Fluorescence enzyme assay, determination of IC50 values (CPP32); settings: recombinant enzyme, 30 min preincubation, substrate Acetyl-Asp-Glu-Val-Asp-AMC, room temperature
T3 sequence (P42574 29-175 limits assumed): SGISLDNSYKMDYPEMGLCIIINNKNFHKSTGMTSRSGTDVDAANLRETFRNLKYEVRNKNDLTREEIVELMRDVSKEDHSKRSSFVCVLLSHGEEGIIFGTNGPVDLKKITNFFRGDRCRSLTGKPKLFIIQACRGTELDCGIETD
T3 sequence (P42574 176-277 limits assumed): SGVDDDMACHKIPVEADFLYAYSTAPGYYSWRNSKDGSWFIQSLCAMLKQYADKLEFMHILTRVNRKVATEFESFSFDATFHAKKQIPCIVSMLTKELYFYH
Description: as §1, §2, §3

[4] = target: T4, mICE (Mus musculus, UniProt P29452); experiment: Fluorescence enzyme assay, determination of IC50 values (ICE); settings: recombinant enzyme, 30 min preincubation, substrate Acetyl-Tyr-Val-Ala-Asp-AMC, room temperature
T4 sequence (P29452 123-296 limits assumed): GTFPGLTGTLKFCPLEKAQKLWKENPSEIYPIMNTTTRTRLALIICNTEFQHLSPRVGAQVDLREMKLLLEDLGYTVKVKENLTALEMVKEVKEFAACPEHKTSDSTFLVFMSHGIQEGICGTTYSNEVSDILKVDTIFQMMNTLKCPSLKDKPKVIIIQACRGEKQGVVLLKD
T4 sequence (P29452 315-402 limits assumed): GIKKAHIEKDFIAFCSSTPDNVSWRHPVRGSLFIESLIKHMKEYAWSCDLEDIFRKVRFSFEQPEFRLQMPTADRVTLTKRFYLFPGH
Description: as §1, §2, §3

[5] = target: T5, MCH-3 (Homo sapiens, UniProt P55210); experiment: Fluorescence enzyme assay, determination of IC50 values (Mch3); settings: 30 min preincubation, substrate Acetyl-Asp-Glu-Val-Asp-AMC, room temperature
T5 sequence (P55210 24-198 limits assumed): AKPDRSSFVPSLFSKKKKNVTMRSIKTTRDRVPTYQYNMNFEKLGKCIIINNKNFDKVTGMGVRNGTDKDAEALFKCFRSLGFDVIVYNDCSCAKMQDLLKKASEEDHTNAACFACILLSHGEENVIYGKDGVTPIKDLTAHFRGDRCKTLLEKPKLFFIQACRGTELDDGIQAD
T5 sequence (P55210 207-303 limits assumed): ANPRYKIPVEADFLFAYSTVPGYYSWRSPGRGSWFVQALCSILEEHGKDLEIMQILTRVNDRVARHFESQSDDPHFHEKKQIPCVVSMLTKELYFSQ
Description: as §1, §2, §3

[6] = target: T4, mICE; experiment: Dissociation constant Ki and irreversible rate constant k3 for irreversible inhibitors (ICE)
[7] = target: T3, CPP32; experiment: Dissociation constant Ki and irreversible rate constant k3 for irreversible inhibitors (CPP32)
[8] = target: T2, MCH-5; experiment: Dissociation constant Ki and irreversible rate constant k3 for irreversible inhibitors (Mch5)
[9] = target: T1, MCH-2; experiment: Dissociation constant Ki and irreversible rate constant k3 for irreversible inhibitors (Mch2)
[10] = continuous assay 60 min, reaction initiated by adding enzyme to substrate-inhibitor mixture

Row | SMILES | Ki [6, 10] [nM] | mICE k3/Ki [6, 10] | CPP32 k3/Ki [7, 10] | Ki [7, 10] [nM] | Ki [8, 10] [nM] | MCH-5 k3/Ki [8, 10] | Ki [9, 10] [nM] | MCH-2 k3/Ki [9, 10] | further results
1 | CC(C)C[C@H](NC(=O)C(=O)Nc1cccc2ccccc12)C(=O)N[C@H](C=O)CC(=O)O [Example 1, (3S)-3-[N-(N′-(1-NAPHTHYL)OXAMYL)LEUCINYL]AMINO-4-OXOBUTANOIC ACID] |  |  |  |  |  |  |  |  | IC50 [1]: 1500 nM; IC50 [2]: 179 nM; IC50 [3]: 10 nM; IC50 [4]: 27 nM; IC50 [5]: 267 nM
2 | CC(C)[C@H](NC(=O)OCc1ccccc1)C(=O)N[C@@H](C)C(=O)N[C@H](C=O)CC(=O)O [reference, Cbz-ValAlaAsp-H, reference compound] (Cbz-Val-Ala-Asp-aldehyde) |  |  |  |  |  |  |  |  | IC50 [1]: > 10000 nM; IC50 [2]: 2960 nM; IC50 [3]: 47000 nM; IC50 [4]: 64 nM; IC50 [5]: > 10000 nM
3 | CC(C)[C@H](NC(=O)C(=O)NCc1ccccc1)C(=O)N[C@@H](CC(=O)O)C(=O)COc1c(F)c(F)cc(F)c1F [Example 79] | 6 | 1,800,000 moles^−1 seconds^−1 | 21,000 moles^−1 seconds^−1 | 405 | 5 | 472,000 moles^−1 seconds^−1 | 125 | 16,600 moles^−1 seconds^−1 | 
4 | C[C@H](NC(=O)C(=O)Nc1cc(C(F)(F)F)ccc1N1CCOCC1)C(=O)N[C@@H](CC(=O)O)C(=O)COP(=O)(c1ccccc1)c1ccccc1 [Example 45] | 19 | 369,000 moles^−1 seconds^−1 | 100,000 moles^−1 seconds^−1 | 112 | 8 | 441,000 moles^−1 seconds^−1 | 19 | 98,500 moles^−1 seconds^−1 | 
5 | C[C@H](NC(=O)C(=O)Nc1cccc2c1CCCC2)C(=O)N[C@@H](CC(=O)O)C(=O)COP(=O)(c1ccccc1)c1ccccc1 [Example 61] | 23 | 315,000 moles^−1 seconds^−1 | 157,000 moles^−1 seconds^−1 | 69 | 38 | 71,800 moles^−1 seconds^−1 | 19 | 120,000 moles^−1 seconds^−1 | 
6 | C[C@H](NC(=O)C(=O)Nc1ccccc1F)C(=O)N[C@@H](CC(=O)O)C(=O)COc1c(F)c(F)cc(F)c1F [Example 66] | 25 | 339,000 moles^−1 seconds^−1 | 478,000 moles^−1 seconds^−1 | 28 | 13 | 170,000 moles^−1 seconds^−1 | 19 | 212,000 moles^−1 seconds^−1 | 
7 | C[C@H](NC(=O)C(=O)Nc1ccccc1-c1ccccc1)C(=O)N[C@@H](CC(=O)O)C(=O)COC(=O)c1c(Cl)cccc1Cl [Example 29] | 38 | 259,000 moles^−1 seconds^−1 | 388,000 moles^−1 seconds^−1 | 15 | 17 | 125,000 moles^−1 seconds^−1 | 9 | 219,000 moles^−1 seconds^−1 | 
8 | C[C@H](NC(=O)C(=O)NC12CC3CC(CC(C3)C1)C2)C(=O)N[C@@H](CC(=O)O)C(=O)COP(=O)(c1ccccc1)c1ccccc1 [Example 53] |  |  |  |  |  |  |  |  | Ki [6]: 462 nM; mICE k3/Ki [6]: 27,600 moles^−1 seconds^−1; CPP32 k3/Ki [7]: 149,000 moles^−1 seconds^−1; Ki [7]: 134 nM; Ki [8]: 77 nM; MCH-5 k3/Ki [8]: 50,400 moles^−1 seconds^−1; Ki [9]: 42 nM; MCH-2 k3/Ki [9]: 124,000 moles^−1 seconds^−1
